Test results reported in US20140329863A1 (priority 2011, published 2014).
≈ marks a conversion by molar mass, not a printed value.

tested on: PrP^Sc in dividing ScN2a-cl3 cells; experiment: not given; format: cell-based, mouse; conditions: read-out: EC50 (nM): ELISA; dividing ScN2a-cl3 cells

Question: For `Oc1ccc(/C=C/c2cc(O)cc(O)c2)cc1` [IND-0047971], which EC50 is on record?
Answer: Its EC50 is 2260 nM.

Question: For `N#Cc1ccc(/C=C/c2ccc(F)cc2)cc1` [IND-0047979], which EC50 is on record?
Answer: Its EC50 is 1700 nM.

Question: For `N#Cc1sc2nc(-c3ccc4c(c3)OCO4)ccc2c1N` [IND-0052851], which EC50 is on record?
Answer: The EC50 was 962 nM.

Question: Which EC50 does the source give for `CCOc1ccc(C(=O)Nc2ccc3oc(-c4ccc(OC)cc4)nc3c2)cc1` [IND-0114138] here?
Answer: The EC50 was 65 nM.

Question: Which EC50 does the source give for `COc1ccc(-c2nc3cc(NC(=O)c4ccc(OCc5ccccc5)cc4)ccc3o2)cc1` [IND-0114202] here?
Answer: Its EC50 is 57 nM.

same assay, conditions: read-out: Potency (nM) ELISA (EC50); PrP^Sc ELISA, dividing ScN2a-cl3 cells

Question: With `Oc1ccc(/C=C/c2cc(O)cc(O)c2)cc1` [IND-0047971] as the molecule, how does the EC50 read?
Answer: Its EC50 is 2260 nM.

Question: Which EC50 does the source give for `N#Cc1ccc(/C=C/c2ccc(F)cc2)cc1` [IND-0047979] here?
Answer: Its EC50 is 1700 nM.

Question: With `N#Cc1sc2nc(-c3ccc4c(c3)OCO4)ccc2c1N` [IND-0052851] as the molecule, how does the EC50 read?
Answer: Its EC50 is 962 nM.

Question: For `CCOc1ccc(C(=O)Nc2ccc3oc(-c4ccc(OC)cc4)nc3c2)cc1` [IND-0114138], which EC50 is on record?
Answer: The EC50 was 65 nM.

Question: Which EC50 does the source give for `COc1ccc(-c2nc3cc(NC(=O)c4ccc(OCc5ccccc5)cc4)ccc3o2)cc1` [IND-0114202] here?
Answer: Its EC50 is 57 nM.

tested on: PrP^Sc in ScN2a-cl3 cells; experiment: not given; format: cell-based, mouse; conditions: read-out: EC50 (nM): Western; Western immunoblots, ScN2a-cl3 cells

Question: With `Oc1ccc(/C=C/c2cc(O)cc(O)c2)cc1` [IND-0047971] as the molecule, how does the EC50 read?
Answer: Its EC50 is 584 nM.

Question: With `N#Cc1ccc(/C=C/c2ccc(F)cc2)cc1` [IND-0047979] as the molecule, how does the EC50 read?
Answer: Its EC50 is 528 nM.

Question: For `N#Cc1sc2nc(-c3ccc4c(c3)OCO4)ccc2c1N` [IND-0052851], which EC50 is on record?
Answer: Its EC50 is 518 nM.

Question: For `CCOc1ccc(C(=O)Nc2ccc3oc(-c4ccc(OC)cc4)nc3c2)cc1` [IND-0114138], which EC50 is on record?
Answer: Its EC50 is 134 nM.

Question: Which EC50 does the source give for `COc1ccc(-c2nc3cc(NC(=O)c4ccc(OCc5ccccc5)cc4)ccc3o2)cc1` [IND-0114202] here?
Answer: Its EC50 is 2560 nM.

same assay, conditions: read-out: Potency (nM) Western (EC50); Western immunoblots, dividing ScN2a-cl3 cells

Question: For `Oc1ccc(/C=C/c2cc(O)cc(O)c2)cc1` [IND-0047971], which EC50 is on record?
Answer: Its EC50 is 584 nM.

Question: Which EC50 does the source give for `N#Cc1ccc(/C=C/c2ccc(F)cc2)cc1` [IND-0047979] here?
Answer: The EC50 was 528 nM.

Question: With `N#Cc1sc2nc(-c3ccc4c(c3)OCO4)ccc2c1N` [IND-0052851] as the molecule, how does the EC50 read?
Answer: Its EC50 is 518 nM.

Question: With `CCOc1ccc(C(=O)Nc2ccc3oc(-c4ccc(OC)cc4)nc3c2)cc1` [IND-0114138] as the molecule, how does the EC50 read?
Answer: The EC50 was 134 nM.

Question: Which EC50 does the source give for `COc1ccc(-c2nc3cc(NC(=O)c4ccc(OCc5ccccc5)cc4)ccc3o2)cc1` [IND-0114202] here?
Answer: The EC50 was 2560 nM.

tested on: PrP^C in T98G cells; experiment: not given; format: cell-based, human; conditions: not given

Question: With `COc1ccc(CC(=O)NCc2ccccc2)cc1` [IND6612] as the molecule, how does the “Potency relative to the bromo analog (IND61769)” value read?
Answer: Its value is “equal potency to the bromo analog”.

same assay, conditions: read-out: EC50 (μM) ELISA

Question: With `COc1ccc(CC(=O)NCc2ccccc2)cc1` [IND6612] as the molecule, how does the EC50 read?
Answer: Its EC50 is 3.36 µM.

Question: Which EC50 does the source give for `O=C(Cc1ccc(Br)cc1)NCc1ccccc1` [IND61769] here?
Answer: The EC50 was 2.33 µM.

Question: With `O=C(Cc1ccc(Cl)cc1)NCc1ccccc1` [IND126416] as the molecule, how does the EC50 read?
Answer: Its EC50 is > 10 µM.

same assay, conditions: read-out: EC50, PrP^C ELISA in T98G cells

Question: For `O=C(Cc1ccc(Cl)cc1)NCc1ccccc1` [IND126416], which EC50 is on record?
Answer: The EC50 was > 10 µM.

tested on: T98G cells; experiment: cells; format: cell-based, human; conditions: Homo sapiens, T98G, read-out: EC50 (μM) Calcein

Question: With `COc1ccc(CC(=O)NCc2ccccc2)cc1` [IND6612] as the molecule, how does the EC50 read?
Answer: Its EC50 is > 10 µM.

Question: For `O=C(Cc1ccc(Br)cc1)NCc1ccccc1` [IND61769], which EC50 is on record?
Answer: Its EC50 is > 10 µM.

Question: For `O=C(Cc1ccc(Cl)cc1)NCc1ccccc1` [IND126416], which EC50 is on record?
Answer: The EC50 was > 10 µM.

tested on: N2a-cl3 cells; experiment: not given; conditions: mouse

Question: For `Oc1ccc(/C=C/c2cc(O)cc(O)c2)cc1` [IND-0047971], which “EC50 (nM): Calcein (LC50 values from calcein assays)” value (“EC50 (nM): Calcein” below) is on record?
Answer: Its value is “MW: 228.2 EC50 (nM): ELISA: 2260 Calcein: >10,000 Western: 584”.

Question: With `N#Cc1ccc(/C=C/c2ccc(F)cc2)cc1` [IND-0047979] as the molecule, how does the “EC50 (nM): Calcein” value read?
Answer: Its value is “MW: 223.3 EC50 (nM): ELISA: 1700 Calcein: >10,000 Western: 528”.

Question: Which “EC50 (nM): Calcein” value does the source give for `N#Cc1sc2nc(-c3ccc4c(c3)OCO4)ccc2c1N` [IND-0052851] here?
Answer: The value was “MW: 295.3 EC50 (nM): ELISA: 962 Calcein: >10,000 Western: 518”.

Question: Which “EC50 (nM): Calcein” value does the source give for `CCOc1ccc(C(=O)Nc2ccc3oc(-c4ccc(OC)cc4)nc3c2)cc1` [IND-0114138] here?
Answer: The value was “MW: 388.4 EC50 (nM): ELISA: 65 Calcein: >10,000 Western: 134”.

Question: Which “EC50 (nM): Calcein” value does the source give for `COc1ccc(-c2nc3cc(NC(=O)c4ccc(OCc5ccccc5)cc4)ccc3o2)cc1` [IND-0114202] here?
Answer: The value was “MW: 450.5 EC50 (nM): ELISA: 57 Calcein: >10,000 Western: 2565”.

tested on: not listed separately; experiment: in vitro; conditions: mouse

Question: For `Oc1ccc(/C=C/c2cc(O)cc(O)c2)cc1` [IND-0047971], which CC50 is on record?
Answer: Its CC50 is > 10000 nM.

Question: Which CC50 does the source give for `N#Cc1ccc(/C=C/c2ccc(F)cc2)cc1` [IND-0047979] here?
Answer: Its CC50 is > 10000 nM.

Question: Which CC50 does the source give for `N#Cc1sc2nc(-c3ccc4c(c3)OCO4)ccc2c1N` [IND-0052851] here?
Answer: The CC50 was > 10000 nM.

Question: Which CC50 does the source give for `CCOc1ccc(C(=O)Nc2ccc3oc(-c4ccc(OC)cc4)nc3c2)cc1` [IND-0114138] here?
Answer: The CC50 was > 10000 nM.

Question: Which CC50 does the source give for `COc1ccc(-c2nc3cc(NC(=O)c4ccc(OCc5ccccc5)cc4)ccc3o2)cc1` [IND-0114202] here?
Answer: The CC50 was > 10000 nM.

tested on: not listed separately; experiment: physchem; conditions: pH 1.2, simulated gastric fluid

Question: For `Cc1cccc(Nc2nc(-c3ccc(-c4ccc(N(C)C)nc4)cc3)cs2)n1` [IND-0116044], which solubility is on record?
Answer: The solubility was 77.1 µM (≈ 29.9 µg/mL).

Question: For `Cc1cccc(Nc2nc(-c3ccc(-c4ccc(OC(C)C)nc4)cc3)cs2)n1` [IND-0116091], which solubility is on record?
Answer: The solubility was 13.1 µM (≈ 5.27 µg/mL).

Question: Which solubility does the source give for `Cc1cccc(Nc2nc(-c3ccc(-c4cc[n+]([O-])cc4)cc3)cs2)n1` [IND-0116092] here?
Answer: Its solubility is 17.6 µM (≈ 6.34 µg/mL).

Question: With `COCCOc1ccc(-c2ccc(-c3csc(Nc4cccc(C)n4)n3)cc2)cn1` [IND-0116094] as the molecule, how does the solubility read?
Answer: Its solubility is 62.8 µM (≈ 26.3 µg/mL).

Question: With `Cc1cccc(Nc2nc(-c3ccc(-c4ccc[n+]([O-])c4)cc3)cs2)n1` [IND-0116097] as the molecule, how does the solubility read?
Answer: The solubility was 49 µM (≈ 17.7 µg/mL).

Question: Which solubility does the source give for `COCCOc1cccc(Nc2nc(-c3ccc(-c4ccccc4)cc3)cs2)n1` [IND-0116102] here?
Answer: The solubility was 2.1 µM (≈ 0.847 µg/mL).

Question: With `Cc1cccc(Nc2nc(-c3ccc(-c4ccc(N5CCN(C)CC5)nc4)cc3)cs2)n1` [IND-0116103] as the molecule, how does the solubility read?
Answer: The solubility was 37.1 µM (≈ 16.4 µg/mL).

Question: For `Cc1cccc(Nc2nc(-c3ccc(-c4ccnc(N5CCN(C)CC5)c4)cc3)cs2)n1` [IND-0116134], which solubility is on record?
Answer: Its solubility is 81.8 µM (≈ 36.2 µg/mL).

Question: With `CN(C)c1cc(-c2ccc(-c3csc(NC(=O)C4CC4)n3)cc2)ccn1` [IND- 116123] as the molecule, how does the solubility read?
Answer: Its solubility is > 150 µM.

same assay, conditions: pH 7.4, aqueous buffer

Question: Which solubility does the source give for `Cc1cccc(Nc2nc(-c3ccc(-c4ccc(N(C)C)nc4)cc3)cs2)n1` [IND-0116044] here?
Answer: Its solubility is 14.3 µM (≈ 5.54 µg/mL).

Question: For `Cc1cccc(Nc2nc(-c3ccc(-c4ccc(OC(C)C)nc4)cc3)cs2)n1` [IND-0116091], which solubility is on record?
Answer: Its solubility is 3.2 µM (≈ 1.29 µg/mL).

Question: For `Cc1cccc(Nc2nc(-c3ccc(-c4cc[n+]([O-])cc4)cc3)cs2)n1` [IND-0116092], which solubility is on record?
Answer: Its solubility is 15.2 µM (≈ 5.48 µg/mL).

Question: For `COCCOc1ccc(-c2ccc(-c3csc(Nc4cccc(C)n4)n3)cc2)cn1` [IND-0116094], which solubility is on record?
Answer: The solubility was 2.2 µM (≈ 0.921 µg/mL).

Question: Which solubility does the source give for `Cc1cccc(Nc2nc(-c3ccc(-c4ccc[n+]([O-])c4)cc3)cs2)n1` [IND-0116097] here?
Answer: The solubility was 5.1 µM (≈ 1.84 µg/mL).

Question: For `COCCOc1cccc(Nc2nc(-c3ccc(-c4ccccc4)cc3)cs2)n1` [IND-0116102], which solubility is on record?
Answer: The solubility was 2.7 µM (≈ 1.09 µg/mL).

Question: Which solubility does the source give for `Cc1cccc(Nc2nc(-c3ccc(-c4ccc(N5CCN(C)CC5)nc4)cc3)cs2)n1` [IND-0116103] here?
Answer: The solubility was 4.4 µM (≈ 1.95 µg/mL).

Question: For `Cc1cccc(Nc2nc(-c3ccc(-c4ccnc(N5CCN(C)CC5)c4)cc3)cs2)n1` [IND-0116134], which solubility is on record?
Answer: The solubility was 40.2 µM (≈ 17.8 µg/mL).

Question: For `CN(C)c1cc(-c2ccc(-c3csc(NC(=O)C4CC4)n3)cc2)ccn1` [IND- 116123], which solubility is on record?
Answer: The solubility was < 0.5 µM.

tested on: not listed separately; experiment: Single-dose pharmacokinetics in FVB mice (oral gavage, IV); conditions: single oral dose 10 mg/kg, FVB mice

Question: Which “Brain/Plasma AUClast Ratio” value does the source give for `N#Cc1sc2nc(-c3ccc4c(c3)OCO4)ccc2c1N` [IND-0052851] here?
Answer: Its value is 2.59.

same assay, conditions: single oral dose 10 mg/kg, two FVB mice, brain

Question: With `N#Cc1sc2nc(-c3ccc4c(c3)OCO4)ccc2c1N` [IND-0052851] as the molecule, how does the “AUClast ± SD, Brain” value read?
Answer: Its value is 2.12 ± 0.93 µM·h.

same assay, conditions: single oral dose 10 mg/kg, two FVB mice, plasma

Question: With `N#Cc1sc2nc(-c3ccc4c(c3)OCO4)ccc2c1N` [IND-0052851] as the molecule, how does the “AUClast ± SD, Plasma” value read?
Answer: Its value is 0.82 ± 0.31 µM·h.
